Active and inactive are the calls of the source. Bounds are passed on as bounds.

This note sets out measurements from ChEMBL document CHEMBL1201862, “PubChem BioAssay data set” (2004).

One series deals with H4. The series can be described thus: Luminescence Cell-Based Dose Response HTS to Identify Activators of 5'UTR Stem-Loop Driven Prion Protein mRNA Translation in H4 Neuroglioblastoma Cells. [Related pubchem assays: 1829 (Project Summary), 1814 (Primary HTS)]. In kind it is functional. The following applies: Homo sapiens.
Series [1] is described as follows: NIH3T3 cell viability loss – ATP luminescence, mouse fibroblasts, counter-screen, dose response (AID 2010).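 Also: cells exposed to compound for about 90 hours before reading.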 It counts as functional, cell-based. In general terms: Counterscreens check selectivity or assay interference.
Series [2] can be described thus: Trypanosoma cruzi growth suppression in host cells – NIH3T3 host cells, beta-gal luminescence, confirmation (AID 2044).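 Also: intracellular parasites grown in NIH/3T3 mouse fibroblasts as host cells; luminescent beta-galactosidase reporter signal from transgenic T. cruzi replicating inside host cells; inhibitors lower the luminescence signal.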 It counts as functional, cell-based.
A short description of series [3]: Luminescence Cell-Based Dose Response HTS to Identify Activators of Luciferase Translation or Activity in H4 […] Cells. [Related pubchem assays: 1829 (Project Summary), 1814 (Primary HTS)]. In kind it is functional.
Another series deals with Cytochrome P450 2C19 (Homo sapiens, UniProt P33261). Description: Cytochrome panel assay with activity outcomes. Panel member name: p450-cyp2c19 Compounds with AC50 equal or less than 10 uM are considered active. It counts as functional.
The next series has as its target Cytochrome P450 2C9 (Homo sapiens, UniProt P11712).
Another series addresses Cytochrome P450 3A4 (Homo sapiens, UniProt P08684).
Series [4] addresses T1, Rac GTPase-activating protein 1 (Homo sapiens, UniProt Q9H0H5).
T1 sequence (Q9H0H5 whole entry): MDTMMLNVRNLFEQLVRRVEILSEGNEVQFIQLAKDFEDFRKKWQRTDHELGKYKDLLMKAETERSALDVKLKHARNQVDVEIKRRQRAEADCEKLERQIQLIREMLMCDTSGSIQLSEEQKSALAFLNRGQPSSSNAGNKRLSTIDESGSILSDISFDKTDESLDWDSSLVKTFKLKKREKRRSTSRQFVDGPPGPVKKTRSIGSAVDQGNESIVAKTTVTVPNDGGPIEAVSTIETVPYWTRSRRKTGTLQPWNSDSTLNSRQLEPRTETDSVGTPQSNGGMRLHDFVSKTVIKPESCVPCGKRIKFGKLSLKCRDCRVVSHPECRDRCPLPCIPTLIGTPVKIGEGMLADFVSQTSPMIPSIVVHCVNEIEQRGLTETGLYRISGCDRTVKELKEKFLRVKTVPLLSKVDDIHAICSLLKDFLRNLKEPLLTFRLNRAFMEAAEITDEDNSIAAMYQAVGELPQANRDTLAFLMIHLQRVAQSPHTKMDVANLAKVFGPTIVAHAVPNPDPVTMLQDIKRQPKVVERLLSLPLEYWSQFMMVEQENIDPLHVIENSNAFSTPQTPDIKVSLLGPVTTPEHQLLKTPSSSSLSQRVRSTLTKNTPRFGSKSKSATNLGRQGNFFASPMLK
Description: blockers of MgcRacGAP-driven Rac1 GTP hydrolysis – biochemical, ADP Hunter fluorescence, primary and confirmatory, confirmation (AID 624330). It counts as functional.

Chain of Cytochrome P450 2C9 (P11712 whole entry): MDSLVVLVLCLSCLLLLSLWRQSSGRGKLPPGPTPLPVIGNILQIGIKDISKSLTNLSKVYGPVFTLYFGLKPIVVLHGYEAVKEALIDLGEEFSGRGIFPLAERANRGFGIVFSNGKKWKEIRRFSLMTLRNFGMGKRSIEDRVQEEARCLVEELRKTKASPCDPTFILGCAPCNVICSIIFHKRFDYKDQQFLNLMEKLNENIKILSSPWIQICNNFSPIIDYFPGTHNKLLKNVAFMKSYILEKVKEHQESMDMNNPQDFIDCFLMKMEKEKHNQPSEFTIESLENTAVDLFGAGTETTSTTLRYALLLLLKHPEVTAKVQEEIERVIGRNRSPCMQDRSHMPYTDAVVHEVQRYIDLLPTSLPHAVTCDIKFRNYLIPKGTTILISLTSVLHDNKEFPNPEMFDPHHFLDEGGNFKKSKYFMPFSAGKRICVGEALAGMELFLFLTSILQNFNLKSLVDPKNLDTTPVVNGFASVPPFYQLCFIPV
Chain of Cytochrome P450 3A4 (P08684 whole entry): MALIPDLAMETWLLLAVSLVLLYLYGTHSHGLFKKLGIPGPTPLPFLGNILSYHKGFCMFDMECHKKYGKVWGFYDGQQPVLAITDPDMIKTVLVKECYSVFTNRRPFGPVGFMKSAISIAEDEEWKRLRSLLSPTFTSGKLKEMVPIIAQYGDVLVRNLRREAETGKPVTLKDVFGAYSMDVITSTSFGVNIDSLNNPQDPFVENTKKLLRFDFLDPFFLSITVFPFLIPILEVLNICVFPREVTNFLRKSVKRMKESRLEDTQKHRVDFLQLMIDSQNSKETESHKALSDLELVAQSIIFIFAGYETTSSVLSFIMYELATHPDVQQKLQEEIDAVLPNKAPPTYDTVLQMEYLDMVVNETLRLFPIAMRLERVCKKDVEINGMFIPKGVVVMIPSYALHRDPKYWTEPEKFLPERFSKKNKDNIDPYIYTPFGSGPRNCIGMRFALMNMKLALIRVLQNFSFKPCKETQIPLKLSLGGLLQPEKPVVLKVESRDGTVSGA
Chain of Cytochrome P450 2C19 (P33261 whole entry): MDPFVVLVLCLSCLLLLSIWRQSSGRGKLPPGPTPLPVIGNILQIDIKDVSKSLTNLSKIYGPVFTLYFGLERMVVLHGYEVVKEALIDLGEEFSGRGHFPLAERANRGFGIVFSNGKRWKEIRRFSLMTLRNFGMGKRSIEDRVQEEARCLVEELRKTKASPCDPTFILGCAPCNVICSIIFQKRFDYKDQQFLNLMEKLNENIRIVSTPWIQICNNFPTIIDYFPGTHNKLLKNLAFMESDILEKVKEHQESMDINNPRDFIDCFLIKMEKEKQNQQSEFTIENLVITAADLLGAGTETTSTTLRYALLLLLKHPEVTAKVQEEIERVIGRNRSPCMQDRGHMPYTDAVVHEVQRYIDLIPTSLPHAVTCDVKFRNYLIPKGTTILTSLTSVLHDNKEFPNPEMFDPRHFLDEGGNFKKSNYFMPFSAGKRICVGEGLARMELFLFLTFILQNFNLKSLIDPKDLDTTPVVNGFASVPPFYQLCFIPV

Consider `Cc1ccc(-n2c(C)cc(C(=O)COC(=O)c3cccnc3O)c2C)cc1`, for which the EC50 (in general, the concentration that produces a half-maximal response) in the series on H4 is > 120 µM (not active).
`Cc1ccsc1C(=O)C1CCCN(Cc2cnc(N3CCOCC3)s2)C1` (stereo unspecified): the EC50 in series [1] was > 60 µM (not active); in series [2] it was 0.146 µM (active).
For `Cc1cc(/C=C(\C#N)C(=O)NC2CC2)c(C)[nH]1`, the concentration for a half-maximal effect (EC50) in series [3] was 0.857 µM (active); in the series on H4, > 120 µM (not active).
Consider `CN[C@@H](c1ccncc1)[C@@H](NC)c1ccncc1`, for which the concentration at half-maximal activity (AC50) – broadly, the midpoint of the concentration-response curve, whichever way the signal moves – on Cytochrome P450 2C19 (read-out: AC50) is 3.16 µM (inconclusive).
With `Cc1cccc(C(=O)c2ccccc2C(=O)O)c1O`, the AC50 was 0.1 µM (inconclusive) at Cytochrome P450 2C9 and 25.1 µM (inconclusive) on Cytochrome P450 3A4.
For the molecule `c1ccc(Cn2c3ccccc3c3nnc(SCCN4CCCCC4)nc32)cc1`, the results for the EC50 in series [1] and in series [2] were > 60 µM (not active) and 0.489 µM (active), respectively.
The like results for `CC1(C)C([N+](=O)[O-])C(c2ccc(Cl)cc2)NC(c2ccc(Cl)cc2)C1[N+](=O)[O-]` (stereo unspecified) were, in that order, > 60 µM (inconclusive) and 2 µM (active).
For the molecule `COc1ccc(Cc2nc3cc(S(=O)(=O)N4CCOCC4)ccc3[nH]2)cc1OC`, the AC50 on Cytochrome P450 2C19 (read-out: AC50) is 25.1 µM (inconclusive).
Consider `Cn1c(-c2nnn(-c3ccc(F)cc3)n2)cc2ccccc21`, for which the EC50 with H4 is 36.6 µM (active).
As for `c1ccc(CNc2ncncc2-c2ccc3c(c2)OCO3)cc1`, on Cytochrome P450 2C9, the AC50 was 0.316 µM (inconclusive).
For `O=c1c(-c2cccc(F)c2)nc2cncnc2n1-c1ccccc1`, at Cytochrome P450 3A4, the half-maximal activity concentration (AC50) was 20 µM (inconclusive).
As for `CCOc1ccc(-n2c(SCc3nc(-c4ccc(C)cc4)no3)nnc2-c2ccncc2)cc1`, the EC50 in series [1] was 6.76 µM (active); in series [2] it was 1.31 µM (active).
Take `COc1ccc(Cc2noc(CN3CCCN(Cc4ccc(F)cc4)CC3)n2)cc1OC`: the EC50 in series [1] was > 60 µM (not active); in series [2], 0.248 µM (active).
Regarding `N=C(NC(=O)c1ccccc1F)Nc1nc2ccccc2o1`, on Cytochrome P450 2C19 (read-out: AC50), the AC50 was 22.4 µM (inconclusive).
On to `OCCN=c1cc(-c2ccccc2)oc2ccc(Cl)cc12`, for which, on Cytochrome P450 3A4, the AC50 was 10 µM (inconclusive).
`Cc1ccc(S(=O)(=O)c2nnn3c2nc(NC2CCN(Cc4ccccc4)CC2)c2ccccc23)cc1C`: the EC50 in series [1] was > 30 µM (not active); in series [2], 1.24 µM (active).
The corresponding values for `COc1ccccc1CN1CCN(Cc2nc(-c3cccs3)no2)CC1` are > 60 µM (not active) and 0.841 µM (active).
Take `Cc1ccc(NC(=O)CN2C(=O)S/C(=C\c3cccn3C)C2=O)cc1`: the AC50 at Cytochrome P450 3A4 was 7.08 µM (inconclusive).
Consider `CCn1nnnc1SCC(=O)c1ccc2c(c1)OCCO2`, for which the AC50 on Cytochrome P450 2C9 is 17.8 µM (inconclusive).
In the case of `Nc1c(C(=O)Nc2ccccc2)c2nc3ccccc3nc2n1-c1ccc(O)cc1`, the EC50 in series [1] is 15.9 µM (active); in series [2], 2.07 µM (active).
Take `CCOc1ccc(N2C(=O)/C(=C/c3cc(OC)c(OC)c(OC)c3)N(CC(=O)OC)C2=S)cc1`: the AC50 is 1.41 µM (inconclusive) on Cytochrome P450 2C9 and 15.8 µM (inconclusive) on Cytochrome P450 3A4.
For the molecule `Cn1c(=O)c2c3c(sc2n2cnnc12)CCC3`, the concentration at half-maximal activity (AC50) result on Cytochrome P450 2C19 is “inconclusive”.
Consider `COc1ccc(C(CC(=O)Nc2cc(OC)cc(OC)c2)n2cccc2)cc1` (stereo unspecified), for which the EC50 in series [1] was > 60 µM (not active); in series [2] it was 2.45 µM (active).
The like results for `O=C(CSc1nc(C2CC2)nc2ccccc12)N1c2ccccc2Sc2ccccc21` were, in that order, > 60 µM (not active) and 4.43 µM (active).
`Cc1cccc(N/C=C(\[N+](=O)[O-])S(=O)(=O)c2ccccc2)c1C`: the EC50 in series [1] was > 60 µM (inconclusive); in series [2], > 60 µM (not active).
Consider `CCn1c(SCc2ccc(C(=O)Nc3nccs3)cc2)nnc1-c1ccc(NC(C)=O)cc1`, for which, at Cytochrome P450 3A4, the AC50 is 1.12 µM (inconclusive).
For the molecule `COc1ccc2[nH]c3c(c2c1)CCN1C(=O)N([C@@H](C)C(=O)NC2CCN(Cc4ccccc4)CC2)C(=O)[C@]31C`, the results for the EC50 in series [1] and in series [2] were > 60 µM (not active) and 0.122 µM (active), respectively.
Turning to `NC(S)=NNc1ccnc2cc(Cl)ccc12`, the IC50 – broadly, the concentration needed to halve the response being measured – in series [4] was 110 µM (active).
In the case of `CCCC[C@@H]1CN2[C@H](c3ccc(Br)cc3)[C@@H](C)CC[C@H]2C(=O)O1`, the AC50 at Cytochrome P450 3A4 was 5.01 µM (inconclusive).
Turning to `O=C(O)/C(Cc1ccc([N+](=O)[O-])cc1)=N/O`, on Cytochrome P450 2C19 (read-out: AC50), the AC50 is 5.01 µM (inconclusive).
On the same count and under the same terms, to `COCCn1c(=O)c(-c2ccccc2)nc2cnc(OCc3ccccc3)nc21` belongs 20 µM (inconclusive).
With `Cc1ccc(N[C@H](c2ccccc2)c2ccc3cccnc3c2O)cc1`, the figures for the AC50 on Cytochrome P450 2C9, on Cytochrome P450 2C19 (read-out: AC50) and on Cytochrome P450 3A4 were 3.98 µM (inconclusive), 3.98 µM (inconclusive) and 3.16 µM (inconclusive), respectively.
Turning to `COc1ccc(S(=O)(=O)N2CCCN(CC(=O)Nc3ccc(OC)c(Cl)c3)CC2)cc1`, the AC50 at Cytochrome P450 2C9 was 39.8 µM (inconclusive).
Regarding `CCOc1ccc(C(=O)C2=C(O)C(=O)N(CCOCCO)C2c2ccccc2OC)cc1` (stereo unspecified), the AC50 at Cytochrome P450 2C19 (read-out: AC50) is 25.1 µM (inconclusive).
With `COc1ccc(/C=C/C(=O)N2c3ccccc3Sc3ccc(C(F)(F)F)cc32)cc1`, the results for the half-maximal effective concentration (EC50) in series [1] and in series [2] were > 60 µM (not active) and 2.8 µM (active), respectively.
For the molecule `COCCNc1nc(-c2ccccc2C)nc2ccccc12`, the AC50 at Cytochrome P450 3A4 is 12.6 µM (inconclusive).
On to `COc1ccc(C(=O)CCN(C)C)c2ccccc12`, for which the AC50 at Cytochrome P450 3A4 was 0.316 µM (inconclusive).
For the molecule `COc1cc(/C=C2\SC(=S)N(NC(=O)c3ccc(O)cc3)C2=O)ccc1O`, the IC50 in series [4] is 59 µM (active).
Consider `Cc1ccc(N=Nc2c(=O)[nH]n3c(C)cc(C)nc23)cc1`, for which the AC50 was 39.8 µM (inconclusive) at Cytochrome P450 2C19 (read-out: AC50) and 25.1 µM (inconclusive) on Cytochrome P450 3A4.
Turning to `COc1cccc(CNCCc2cccc(F)c2)c1OC`, the EC50 in series [1] is > 60 µM (not active); in series [2], 0.828 µM (active).
On to `Brc1ccccc1OCCCCCN1CCOCC1`, for which the IC50 in series [4] is 146 µM (active).
On to `COc1cc(C(=O)NC(=S)Nc2ccc(Cl)c(C(=O)O)c2)cc(OC)c1OC`, for which, on Cytochrome P450 2C9, the AC50 is 28.2 µM (inconclusive).
Consider `Cc1ccc2nc(N(CCN(C)C)C(=O)c3ccc4c(c3)OCCO4)sc2c1`, for which the EC50 in series [1] is > 60 µM (not active); in series [2], 0.104 µM (active).
As for `Cc1ccccc1-c1ccc2ncnc(N(C)C)c2c1`, the AC50 on Cytochrome P450 2C9 is 0.398 µM (inconclusive).
`Cc1cc(N2C(=O)C(O)=C(C(=O)c3cccs3)C2c2cccc(O)c2)no1` (stereo unspecified): the AC50 at Cytochrome P450 2C19 (read-out: AC50) is 31.6 µM (inconclusive).
`COCCn1c(=O)c(C)nc2cnc(Oc3ccccc3)nc21`: the AC50 on Cytochrome P450 2C19 (read-out: AC50) was 39.8 µM (inconclusive); on Cytochrome P450 3A4, 25.1 µM (inconclusive).
Consider `CCC1Oc2ccc(C)cc2N(CC(=O)N(Cc2cccnc2)Cc2cccc(F)c2)C1=O` (stereo unspecified), for which the concentration for a half-maximal effect (EC50) in series [1] is > 60 µM (not active); in series [2], 0.145 µM (active).
Consider `O=S(=O)(c1ccccc1)N1CN2CN(C1)CN(S(=O)(=O)c1ccccc1)C2`, for which the AC50 at Cytochrome P450 2C9 was 0.631 µM (inconclusive).
Consider `CC(=O)NCCNc1ncnc2ccc(-c3cccc(NS(C)(=O)=O)c3)cc12`, for which the AC50 on Cytochrome P450 3A4 is 7.94 µM (inconclusive).
As for `CCN(CC)CCCNCC(=O)Nc1cc(C)on1`, in series [4], the IC50 was 99.4 µM (active).
Turning to `Cc1nc2ccc(C(=O)Nc3ccc(N(C)C)cc3)cc2s1`, the IC50 in series [4] was 39.3 µM (active).
In the case of `Cn1c(=O)c2c(nc(Cc3ccccc3)n2CC(=O)O)n(C)c1=O`, the AC50 result on Cytochrome P450 2C19 is “inconclusive”.
On to `CCCCC1CC(/C(C)=N/NC(N)=O)OC1=O` (stereo unspecified), for which the AC50 on Cytochrome P450 2C9 was 20 µM (inconclusive).
Turning to `CCOc1cc(/C=N/NC(=O)c2cc(C3CC3)[nH]n2)ccc1O`, in series [4], the half-maximal inhibitory concentration (IC50) is 54.9 µM (active).
The same measure, in the same setting: in the case of `O=C(CNc1ccc2c(c1)OCO2)N/N=C\c1ccccc1Cl` it was 114 µM (active).
On to `COC(=O)Cn1cc(/C=N/NC(=O)c2ccc(C#N)cc2F)c2ccccc21`, for which the AC50 is 8.91 µM (inconclusive) on Cytochrome P450 2C9 and 22.4 µM (inconclusive) at Cytochrome P450 2C19 (read-out: AC50).
As for `COc1ccc(O/C(=N\S(=O)(=O)c2ccccc2)c2ccccc2)cc1`, the 50% inhibitory concentration (IC50) in series [4] was 45.5 µM (active).
Consider `O=C(N/N=C/c1c(Nc2cccc(C(F)(F)F)c2)nc2ccccn2c1=O)c1ccccc1`, for which, at Cytochrome P450 2C9, the AC50 is 12.6 µM (inconclusive).
Take `Nc1ccc(C(=O)N/N=C/c2ccccc2)cc1`: the figures for the concentration at half-maximal activity (AC50) on Cytochrome P450 2C9, at Cytochrome P450 2C19 (read-out: AC50) and at Cytochrome P450 3A4 were 0.282 µM (inconclusive), 15.8 µM (inconclusive) and 15.8 µM (inconclusive), respectively.
For the molecule `Cc1cccc(CNc2ncncc2-c2ccccc2C)c1`, at Cytochrome P450 2C9, the AC50 was 1.26 µM (inconclusive).
